Measured values as given in patent publication US3981814A, “Bacteriostatic substituted benzanilide compositions and methods for their use” (Givaudan Corporation, priority 1975, dated 1976).
≈ marks a conversion by molar mass, not a printed value.

Experiments:
Staphylococcus aureus = assay: In vitro soap bacteriostatic test (agar dilution, spot inoculation, 35°, 48 hours); format: cell-based; details: for MIC: Staphylococcus aureus, without soap, read-out: Compound Activity Without Soap: minimum concentration where S. aureus growth is completely inhibited; for Compound Activity With Soap: minimum concentration where S. aureus growth is completely inhibited: ratio of soap to compound 100:1
Method: The antibacterial properties of the compounds prepared in Examples 1 - 14 were tested in soap. The in vitro soap bacteriostatic tests were conducted as follows: The compound is dissolved in a suitable solvent, usually dimethylformamide, to give a 6% solution. One-half ml. aliquot was added to 100 ml. of 3% solution of bar soap stock solution. The solid soap used was a neutral white toilet soap of the "LUX" type. The fatty acids in this soap were of the following composition: This yields an aqueous soap solution containing 30,000 mcg./ml. soap and 300 mcg./ml. compound. The soap/compound ratio in the latter is 100/l. A two-fold serial dilution series is prepared with this solution using sterile distilled water in test tubes such that the final volume in each tube is 2.0 ml. To each test tube is added 28 ml. of molten Dextrose Trypticase Extract Agar (B.B.L.). The tube contents were poured into sterile Petri plates and allowed to harden. The highest final concentration of compound in the serial dilution series is 20 mcg./ml. Plates were spot inoculated with a broth culture of Staphylococcus aureus and incubated at 35° for 48 hours. The lowest concentration completely inhibiting growth of the test organism, in mcg./ml. is recorded as the bacteriostatic concentration of the compound. Tests in the absence of soap are made in a similar manner except that all dilutions are made in solvent. The final concentration in the agar should not be greater than 5%. The results of these tests with the compounds of the present invention as compared with compounds having chemical structures closely related to the compounds of the present invention (designated by the symbol "C") are set forth in the Table. Column 1 contains the data as to the activity of the test solution without soap; column 2 refers to tests in which the ratio of soap to compound is 100:1. […] Growth is observed at the next lower concentration.

[1] = Solubility in alcohol and other solvents; format: physicochemical
in vivo = details: rat, determined in rats, oral toxicity
Description: For example, 4-chloro-3', 5'-di(trifluoromethyl)-benzanilide has an LD50 of […], determined in rats.

O=C(Nc1ccc(Br)c(C(F)(F)F)c1)c1ccc(Br)cc1 [Compound 13, 4,4'-dibromo-α,α,α-trifluoro-m-benzotoluidide]
MIC (Staphylococcus aureus): 1.25 µg/mL (≈ 2.95 µM)
Compound Activity With Soap: minimum concentration where S. aureus growth is completely inhibited (Staphylococcus aureus): 0.312 µg/mL
solubility in alcohol solvents [1]: soluble or fairly soluble

O=C(Nc1cc(C(F)(F)F)cc(C(F)(F)F)c1)c1ccc(Cl)cc1 [Compound 19, 4-chloro-3',5'-di(trifluoromethyl)-benzanilide]
MIC (Staphylococcus aureus): 0.625 µg/mL (≈ 1.7 µM)
Compound Activity With Soap: minimum concentration where S. aureus growth is completely inhibited (Staphylococcus aureus): 0.312 µg/mL
LD50 (in vivo): 6000 mg/kg
solubility in alcohol solvents [1]: soluble or fairly soluble

O=C(Nc1cc(C(F)(F)F)cc(C(F)(F)F)c1)c1ccc(Br)cc1 [Compound 20, 4-bromo-α,α,α,α',α',α' -hexafluorobenzo-3',5'-xylidide]
MIC (Staphylococcus aureus): 0.312 µg/mL (≈ 0.757 µM)
Compound Activity With Soap: minimum concentration where S. aureus growth is completely inhibited (Staphylococcus aureus): 0.312 µg/mL
solubility in alcohol solvents [1]: soluble or fairly soluble

O=C(Nc1cc(C(F)(F)F)cc(C(F)(F)F)c1)c1ccc(F)cc1 [Compound C27]
MIC (Staphylococcus aureus): > 20 µg/mL
Compound Activity With Soap: minimum concentration where S. aureus growth is completely inhibited (Staphylococcus aureus): 10.0 µg/mL

O=C(Nc1cc(C(F)(F)F)cc(C(F)(F)F)c1)c1cccc(C(F)(F)F)c1 [Compound C28]
MIC (Staphylococcus aureus): > 10 µg/mL
Compound Activity With Soap: minimum concentration where S. aureus growth is completely inhibited (Staphylococcus aureus): B (Inactive at 10 mcg./ml. (highest concentration tested))

O=C(Nc1cc(C(F)(F)F)cc(C(F)(F)F)c1)c1cccc(Br)c1 [Compound C29]
MIC (Staphylococcus aureus): > 10 µg/mL
Compound Activity With Soap: minimum concentration where S. aureus growth is completely inhibited (Staphylococcus aureus): B (Inactive at 10 mcg./ml. (highest concentration tested))

O=C(Nc1cccc(Cl)c1)c1ccc(Cl)cc1 [Compound C30]
MIC (Staphylococcus aureus): > 20 µg/mL
Compound Activity With Soap: minimum concentration where S. aureus growth is completely inhibited (Staphylococcus aureus): 5.0 µg/mL

O=C(Nc1ccc(Cl)c(Cl)c1)c1ccc(Cl)cc1 [Compound C31]
MIC (Staphylococcus aureus): > 20 µg/mL
Compound Activity With Soap: minimum concentration where S. aureus growth is completely inhibited (Staphylococcus aureus): 10.0 µg/mL

O=C(Nc1cc(Cl)cc(Cl)c1)c1ccc(Cl)cc1 [Compound C32]
MIC (Staphylococcus aureus): > 20 µg/mL
Compound Activity With Soap: minimum concentration where S. aureus growth is completely inhibited (Staphylococcus aureus): 10.0 µg/mL

O=C(Nc1ccc(Cl)cc1)c1ccc(Cl)c(Cl)c1 [Compound C33]
MIC (Staphylococcus aureus): > 10 µg/mL
Compound Activity With Soap: minimum concentration where S. aureus growth is completely inhibited (Staphylococcus aureus): B (Inactive at 10 mcg./ml. (highest concentration tested))

O=C(Nc1cccc(Cl)c1)c1ccc(Cl)c(Cl)c1 [Compound C34]
MIC (Staphylococcus aureus): > 20 µg/mL
Compound Activity With Soap: minimum concentration where S. aureus growth is completely inhibited (Staphylococcus aureus): A (Inactive at 20 mcg./ml. (highest concentration tested))

O=C(Nc1ccc(Cl)c(Cl)c1)c1ccc(Cl)c(Cl)c1 [Compound C35]
MIC (Staphylococcus aureus): > 10 µg/mL
Compound Activity With Soap: minimum concentration where S. aureus growth is completely inhibited (Staphylococcus aureus): B (Inactive at 10 mcg./ml. (highest concentration tested))

O=C(Nc1cc(Cl)cc(Cl)c1)c1ccc(Cl)c(Cl)c1 [Compound C36]
MIC (Staphylococcus aureus): > 10 µg/mL
Compound Activity With Soap: minimum concentration where S. aureus growth is completely inhibited (Staphylococcus aureus): B (Inactive at 10 mcg./ml. (highest concentration tested))

O=C(Nc1ccc(Cl)c(Cl)c1)c1ccc(Br)cc1 [Compound C37]
MIC (Staphylococcus aureus): 10 µg/mL (≈ 29 µM)
Compound Activity With Soap: minimum concentration where S. aureus growth is completely inhibited (Staphylococcus aureus): 20.0 µg/mL

O=C(Nc1ccc(Cl)c(Cl)c1)c1ccc(C(F)(F)F)cc1 [Compound C38]
MIC (Staphylococcus aureus): > 20 µg/mL
Compound Activity With Soap: minimum concentration where S. aureus growth is completely inhibited (Staphylococcus aureus): 10.0 µg/mL

CC(C)(C)c1ccc(C(=O)Nc2cccc(C(F)(F)F)c2)cc1 [Compound C39]
MIC (Staphylococcus aureus): > 20 µg/mL
Compound Activity With Soap: minimum concentration where S. aureus growth is completely inhibited (Staphylococcus aureus): 5.0 µg/mL
